Literature values as cited in patent US4663309A, “Novel peptide hormones with calcitonin-like activity” (University Patents, Inc., priority 1985, dated 1987).
pIC50: −log10 of the molar value.

Key:
[1] = molecular target: T1, calcitonin receptors (brain particulate fraction) (Rattus norvegicus, UniProt P32214); parameters: from tissue; conditions: rat brain homogenates; literature value; read-out: IC50, [125I]-SCT-I binding to rat brain, value found by Nakamuta et al.; cited from earlier work
T1 sequence (P32214 25-516): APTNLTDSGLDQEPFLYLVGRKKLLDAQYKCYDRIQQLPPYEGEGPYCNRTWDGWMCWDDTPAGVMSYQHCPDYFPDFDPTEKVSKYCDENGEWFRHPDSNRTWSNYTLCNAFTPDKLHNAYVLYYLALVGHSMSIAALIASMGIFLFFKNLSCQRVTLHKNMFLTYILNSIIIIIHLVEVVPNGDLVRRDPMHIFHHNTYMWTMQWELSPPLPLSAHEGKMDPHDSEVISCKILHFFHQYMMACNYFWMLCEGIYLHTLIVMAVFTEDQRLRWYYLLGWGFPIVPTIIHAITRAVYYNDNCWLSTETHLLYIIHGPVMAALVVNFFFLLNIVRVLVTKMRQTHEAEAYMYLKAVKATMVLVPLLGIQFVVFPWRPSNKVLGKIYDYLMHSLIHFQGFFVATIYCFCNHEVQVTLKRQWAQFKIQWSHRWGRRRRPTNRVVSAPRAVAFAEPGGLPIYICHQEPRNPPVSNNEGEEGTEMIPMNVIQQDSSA

[2] = literature value; cited from earlier work

Q: With porcine calcitonin [PCT] as the substance, how does the pIC50 [1] read?
A: 7.77

Q: And the “α-helicity in 50% 2-chloroethanol (Brewer and Edelhoch)” value [2]?
A: 50%
